Experimental data reported in paper PMC6277767, “Broad and Region-Specific Impacts of the Synthetic Cannabinoid CP 55,940 in Adolescent and Adult Female Mouse Brains” (Frontiers in Molecular Neuroscience, 2018).

Test system: CD1 female mouse brain lipidome
Experiment: Brain-region lipid levels (HPLC/MS/MS lipidomics) 2 h after single i.p. 3 mg/kg CP 55,940 vs vehicle
Type: in vivo
Parameters: N-arachidonoyl phenylalanine level, Mean / N-stearoyl tryptophan level, Mean / N-stearoyl proline level, Mean / N-stearoyl leucine level, Mean / N-stearoyl phenylalanine level, Mean / N-stearoyl serine level, Mean / N-stearoyl methionine level, Mean: unit: moles per gram
Description: The Bloomington Institutional Animal Care and Use Committee of Indiana University reviewed and approved the animal procedures. Female mice from the CD1 strain were utilized to match our study examining THC’s effects on the brain lipidome ([Leishman et al., 2018]). Mice were given a single i.p. injection of either 3 mg/kg CP or 1:1:18 cremophor:ethanol:saline vehicle (please refer to the section “3 mg/kg CP Is Relevant for Synthetic Cannabinoid Abuse and Has Stronger Effects on the Female Mouse Brain Lipidome During Adolescence” for a justification of dose and use of female mice). Three different age groups were given injections: PND 35 and PND 50 adolescents, and adult mice (PND 113). At least eight mice in each age group received CP and at least eight received vehicle. Matching the THC study time course ([Leishman et al., 2018]), mice were sacrificed via rapid decapitation 2 h after injection. Brains were immediately removed and flash-frozen in liquid nitrogen, and then stored at -80°C until dissections were performed. Brains were dissected on an ice-cold dissection plate into the following regions: STR, HIPP, CER, THAL, CTX, HYP, MID, and STEM. These abbreviations for these brain areas will be used exclusively when discussing the results generated by these specific dissections. Each dissected area was immediately placed in liquid nitrogen and then stored at -80°C until used for lipid extraction.
Tissue extracts were performed as previously described ([Bradshaw et al., 2006]; [Stuart et al., 2013]; [Raboune et al., 2014]; [Leishman et al., 2016a],[b], [2017], [2018]). First, samples were shock frozen in liquid nitrogen, weighed, and transferred to a centrifuge tube. The mass of the largest sample was multiplied by 50 to determine how many milliliters of HPLC-grade methanol (Fisher, Fair Lawn, NJ, United States) to add. Then, samples were spiked with 500 pmol deuterium-labeled NAGly (d8NAGly; Cayman Chemical, Ann Arbor, MI, United States). Samples were placed on ice in darkness for 2 h then individually homogenized and centrifuged at 19,000 × g for 20 min at 20°C. Supernatants were diluted with HPLC water (purified in house) to make a solution of 75% water, 25% supernatant. Lipids were partially purified on C18 solid phase extraction columns (Agilent, Palo Alto, CA, United States). A series of four elutions with 1.5 mL of 60%, 75%, 85%, and 100% methanol were collected ([Stuart et al., 2013]; [Leishman et al., 2016a],[b], [2018]).
As previously described ([Bradshaw et al., 2006]; [Tan et al., 2006]; [Smoum et al., 2010]; [Stuart et al., 2013]; [Tortoriello et al., 2013]; [Raboune et al., 2014]; [Leishman et al., 2016a],[b], [2017], [2018]), samples were analyzed using an Applied Biosystems API 3000 triple quadrupole mass spectrometer with electrospray ionization (Foster City, CA, United States). Using an Agilent XDB-C18 reversed phase analytical column and optimized mobile phase gradients, 20 μL from each elution were chromatographed. Two Shimadzu 10ADvp pumps (Columbia, MD, United States) provided the pressure for gradient elution. Mobile phase A: 20% methanol, 80% water (v/v) and 1 mM ammonium acetate (Sigma, St. Louis, MO, United States). Mobile phase B: 100% methanol, 1 mM ammonium acetate. Every method run began with 0% mobile phase B, reached 100% mobile phase B flowing at 0.2 mL/min, and gradually returned to 0% mobile phase B.
This screening library will be referred to as the lipidome when discussing data from this study. HPLC/MS/MS data were analyzed using Analyst software (Applied Biosystems) ([Bradshaw et al., 2006]; [Tan et al., 2006]; [Stuart et al., 2013]; [Tortoriello et al., 2013]; [Raboune et al., 2014]; [Leishman et al., 2016a],[b], [2017], [2018]). Chromatograms (Supplementary Figure 3) were generated by determining the retention time of analytes from the analytical column with a [M-1] or [M+1] parent peak and a fragmentation peak corresponding to the programmed values. […]

[1] = adult hypothalamus, 3mg/kg CP 55,940, p .001
[2] = adult hypothalamus, 3mg/kg CP 55,940, p .002
[3] = adult hypothalamus, 3mg/kg CP 55,940, p .005
[4] = adult hypothalamus, 3mg/kg CP 55,940, p .020
[5] = adult hypothalamus, 3mg/kg CP 55,940, p .036
[6] = adult hypothalamus, 3mg/kg CP 55,940, p .060
[7] = adult hypothalamus, 3mg/kg CP 55,940, p .073
[8] = adult midbrain, 3mg/kg CP 55,940
[9] = adult midbrain, 3mg/kg CP 55,940, p .000
[10] = adult midbrain, 3mg/kg CP 55,940, p .003
[11] = adult midbrain, 3mg/kg CP 55,940, p .023

Compound: CCCCCCC(C)(C)c1ccc([C@@H]2C[C@H](O)CC[C@H]2CCCO)c(O)c1 [CP 55,940]
- THC level, Mean (adult hypothalamus, 3 mg/kg CP 55,940): BDL
- PGF2α Direction (relative to Veh) [1]: ↓
- PGF2α Magnitude (x Veh level) [1]: 0.79
- phosphoLEA Direction (relative to Veh) [2]: ↓
- phosphoLEA Magnitude (x Veh level) [2]: 0.74
- 6-ketoPGF1α Direction (relative to Veh) [3]: ↓
- 6-ketoPGF1α Magnitude (x Veh level) [3]: 0.61
- N-palmitoyl phenylalanine Direction (relative to Veh) [4]: ↑
- N-palmitoyl phenylalanine Magnitude (x Veh level) [4]: 1.86
- PGE2 Direction (relative to Veh) [5]: ↑
- PGE2 Magnitude (x Veh level) [5]: 1.18
- N-arachidonoyl taurine Direction (relative to Veh) [6]: ↑
- N-arachidonoyl taurine Magnitude (x Veh level) [6]: 1.24
- N-arachidonoyl GABA Direction (relative to Veh) [7]: ↓
- N-arachidonoyl GABA Magnitude (x Veh level) [7]: 0.83
- 2-arachidonoyl glycerol level, Mean [8]: 3.47E-09
- 2-linoleoyl glycerol level, Mean [8]: 3.28E-10
- 2-oleoyl glycerol level, Mean [8]: 4.34E-09
- 2-palmitoyl glycerol level, Mean [8]: 8.64E-11
- 6-ketoPGF1α level, Mean [8]: 3.28E-11
- 11-OH-THC level, Mean [8]: BDL
- 11-nor-9-carboxyTHC level, Mean [8]: BDL
- Arachidonic acid level, Mean [8]: 5.39E-10
- Cannabidiol level, Mean [8]: BDL
- Linoleic acid level, Mean [8]: 2.55E-10
- N- stearoyl valine level, Mean [8]: 3.08E-14
- N-arachidonoyl GABA level, Mean [8]: 2.05E-11
- N-arachidonoyl alanine level, Mean [8]: 8.5E-13
- N-arachidonoyl dopamine level, Mean [8]: BDL
- N-arachidonoyl ethanolamine level, Mean [8]: 1.42E-11
- N-arachidonoyl glycine level, Mean [8]: 7.94E-13
- N-arachidonoyl phenylalanine level, Mean [8]: 2.39E-13
- N-arachidonoyl proline level, Mean [8]: BDL
- N-arachidonoyl serine level, Mean [8]: 4.34E-13
- N-arachidonoyl taurine level, Mean [8]: 5.5E-11
- N-arachidonoyl tryptophan level, Mean [8]: BDL
- N-arachidonoyl tyrosine level, Mean [8]: 1.09E-12
- N-docosahexaenoyl GABA level, Mean [8]: 8.66E-12
- N-docosahexaenoyl ethanolamine level, Mean [8]: 3.34E-11
- N-docosahexaenoyl glycine level, Mean [8]: 1.02E-13
- N-docosahexaenoyl methionine level, Mean [8]: BDL
- N-docosahexaenoyl phenylalanine level, Mean [8]: 1.11E-13
- N-docosahexaenoyl proline level, Mean [8]: BDL
- N-docosahexaenoyl tryptophan level, Mean [8]: BDL
- N-linoleoyl alanine level, Mean [8]: 4.8E-13
- N-linoleoyl ethanolamine level, Mean [8]: 1.5E-11
- N-linoleoyl glycine level, Mean [8]: 4.47E-14
- N-linoleoyl methionine level, Mean [8]: BDL
- N-linoleoyl proline level, Mean [8]: BDL
- N-linoleoyl serine level, Mean [8]: 2.09E-11
- N-linoleoyl tryptophan level, Mean [8]: BDL
- N-linoleoyl tyrosine level, Mean [8]: BDL
- N-nervonoyl valine level, Mean [8]: BDL
- N-oleoyl GABA level, Mean [8]: 1.69E-11
- N-oleoyl alanine level, Mean [8]: 2.56E-12
- N-oleoyl dopamine level, Mean [8]: BDL
- N-oleoyl ethanolamine level, Mean [8]: 3.41E-10
- N-oleoyl glycine level, Mean [8]: 4.95E-13
- N-oleoyl leucine level, Mean [8]: 1.1E-12
- N-oleoyl phenylalanine level, Mean [8]: 1.49E-12
- N-oleoyl proline level, Mean [8]: BDL
- N-oleoyl serine level, Mean [8]: 1.28E-10
- N-oleoyl tryptophan level, Mean [8]: BDL
- N-oleoyl tyrosine level, Mean [8]: 7.3E-13
- N-oleoyl valine level, Mean [8]: 2.38E-14
- N-palmitoyl GABA level, Mean [8]: 2.91E-11
- N-palmitoyl alanine level, Mean [8]: 1.61E-12
- N-palmitoyl ethanolamine level, Mean [8]: 6.9E-11
- N-palmitoyl glycine level, Mean [8]: 1.85E-12
- N-palmitoyl leucine level, Mean [8]: 2.19E-12
- N-palmitoyl methionine level, Mean [8]: 2.91E-12
- N-palmitoyl phenylalanine level, Mean [8]: 1.17E-12
- N-palmitoyl proline level, Mean [8]: BDL
- N-palmitoyl tryptophan level, Mean [8]: BDL
- N-palmitoyl tyrosine level, Mean [8]: 1.01E-12
- N-palmitoyl valine level, Mean [8]: 1.76E-13
- N-stearoyl GABA level, Mean [8]: 1.9E-11
- N-stearoyl alanine level, Mean [8]: 2.08E-12
- N-stearoyl ethanolamine level, Mean [8]: 1.35E-11
- N-stearoyl glycine level, Mean [8]: 2.96E-12
- N-stearoyl leucine level, Mean [8]: 1.09E-12
- N-stearoyl methionine level, Mean [8]: 4.14E-13
- N-stearoyl phenylalanine level, Mean [8]: 7.89E-13
- N-stearoyl proline level, Mean [8]: BDL
- N-stearoyl serine level, Mean [8]: 1.92E-11
- N-stearoyl tryptophan level, Mean [8]: BDL
- Oleic acid level, Mean [8]: 4.73E-10
- PGE2 level, Mean [8]: 2.39E-10
- PhosphoLEA level, Mean [8]: 2.38E-11
- THC level, Mean [8]: BDL
- 2-arachidonoyl glycerol, Direction (relative to Veh) [9]: ↓
- 2-arachidonoyl glycerol, Magnitude (x Veh level) [9]: 0.80
- 2-oleoyl glycerol, Direction (relative to Veh) [9]: ↓
- 2-oleoyl glycerol, Magnitude (x Veh level) [9]: 0.74
- Arachidonic acid, Direction (relative to Veh) [9]: ↓
- Arachidonic acid, Magnitude (x Veh level) [9]: 0.78
- 2-linoleoyl glycerol Direction (relative to Veh) [10]: ↓
- 2-linoleoyl glycerol Magnitude (x Veh level) [10]: 0.77
- phosphoLEA Direction (relative to Veh) [10]: ↓
- phosphoLEA Magnitude (x Veh level) [10]: 0.70
- N-palmitoyl ethanolamine, Direction (relative to Veh) [11]: ↓
- N-palmitoyl ethanolamine, Magnitude (x Veh level) [11]: 0.82
